Results as given in article PMC5743070 (The Journal of Biological Chemistry, 2017).

Assays:
[1] = system: PHD; assay: NMR titration of PHD with BPC; format: binding
Description: NMR samples were buffered in 20 mM sodium phosphate (pH 7.5), 150 mM NaCl, 5 mM DTT, 5 mM β-mercaptoethanol, 2 mM TCEP, and 10 μM ZnSO4. The protein concentration was between 200 and 300 μM for all samples. The data were collected at 25 °C on Bruker spectrometers equipped with cryoprobes and operating at 500, 600, or 800 MHz. The assignment of backbone TTD–PHD resonances was accomplished using the ABACUS method ([29]) for which standard backbone and ^15N-edited NOESY spectra were collected using ^15N/^13C/^2H- or ^15N/^13C-labeled protein. All 3D experiments were acquired using non-uniform sampling and processed using the software MDDGUI ([30]) or qMDD ([31]). ^15N-Labeled TTD–PHD was used to acquire ^15N T1 and T2 relaxation and ^1H-^15N heteronuclear NOE measurements ([32]) collected using standard Bruker pulse schemes in an interleaved manner. For T1 measurements, the variable delay was set to 0.1, 0.4, 0.8, 1.5, 2.0, 2.5, 3.5, and 5 s. For T2 measurements, the variable delay was set to 16, 32, 48, 64, 80, 96, 128, and 144 ms. The D1 was 3 s for all experiments. Reported values were the average from two measurements. All spectra were processed using NMRPipe ([33]) and analyzed with SPARKY ([34]). […]
trated by the perturbation of I211, I212 and E281 resonances in HSQC spectra of the TTD in a competition assay. […]

[2] = target: isolated TTD (UHRF1_121–286); assay: FP displacement of FITC-labeled H3K9me3(1–25) peptide from TTD; format: biochemical; conditions: FP displacement of N-terminally FITC-labeled H3K9me3(1-25), 0.04 μM peptide, 8 μM TTD, 20 mM Tris pH 8.5, 50 mM NaCl, 3% DMSO, 0.01% TX100
Source text: We designed a fragment library containing 2,040 compounds that was initially screened against isolated TTD (UHRF1_121–286) using a fluorescence polarization (FP) assay that tracked the displacement of a N-terminally tagged H3K9me3 peptide (H3K9me3(1–25)). From this screen, eight putative TTD-binding hits were identified. […] Because of limited commercial availability of the tricyclic amine, we focused only on BPC. The binding of this compound occurs close to (or within) the Arg^296-binding pocket; we observe significant perturbation of Trp^238 and Phe^278 resonances that form part of the pocket, and in Gly^236, which is directly adjacent to it (Fig. 4A and supplemental Fig. S5). We also see chemical shift changes in non-surface exposed residues that are close to or are in contact with the groove.
For FP assays, the TTD (UHRF1_121–286) was buffered in 20 mM Tris (pH 8.5), 50 mM NaCl, 3% DMSO, and 0.01% TX100. N-terminal FITC-labeled H3K9me3(1–25) peptide was synthesized and purified by Tufts University Core Services (Boston, MA). Titrations and compound binding assays were performed in a 10-μl volume at a constant labeled peptide concentration of 0.04 μM. For compound screening and titrations, a non-saturating fixed protein concentration of 8 μM TTD was used. FP assays were performed in 384-well Axygen plates using a Synergy 4 microplate reader (BioTek). […]

[3] = target: T1, TTD (UHRF1_121–286) (Homo sapiens, UniProt Q96T88); assay: DSF thermal shift of TTD; format: binding; conditions: 0.1 mg/ml TTD, absence and presence of 3 mM BPC, 0.1 M HEPES pH 7.5, 0.15 M NaCl, 5× Sypro Orange, 4 °C/min
T1 construct: UHRF1_121–286 corresponding to the TTD; made in house
T1 sequence (Q96T88 121-286): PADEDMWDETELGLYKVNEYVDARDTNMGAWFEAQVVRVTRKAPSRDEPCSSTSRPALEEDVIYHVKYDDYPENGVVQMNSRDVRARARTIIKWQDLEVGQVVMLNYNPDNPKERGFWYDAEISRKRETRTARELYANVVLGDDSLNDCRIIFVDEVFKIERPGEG
Description: DSF measurements were performed with a Light Cycler 480 II instrument from Roche Applied Science. TTD (UHRF1_121–286) was buffered at 0.1 mg/ml in 0.1 M HEPES (pH 7.5), 0.15 M NaCl, and 5× Sypro Orange. Sypro Orange was purchased from Invitrogen as a 5,000× stock solution, and it was diluted 1:1,000 to yield a 5× working concentration. Experiments were run in the absence and presence of 3 mM BPC. DSF was carried out by increasing the temperature from 20 to 95 °C at a heating rate of 4 °C/min, and data points were collected at 1 °C intervals. The temperature scan curves were fitted to a Boltzmann sigmoid function, and the Tm values were obtained from the midpoint of the transition as described previously ([47]).
Figure S5 (related to Fig. 4)
Binding of BPC in the groove of TTD. […]
labeled (at the N-terminus) H3K9me3(1-25) peptide, (B) ITC, and (C) DSF. (D) KD estimates of BPC bind-ing based on I211 and Y239 amide peak movement (where Δ(ppm) = ((ΔδHN)2 + (ΔδN/6.5)2 )1⁄2) in (1H-15N) HSQC spectra when the TTD is titrated with BPC. […]
as a function of TTD sequence resulting from BPC (blue) or PBR peptide (red) binding. (F) HSQC overlays […]
ment:protein), and PBR peptide ratios (bottom spectrum - from 1:1 to 5:1 peptide:protein). The protein con-centration was ~250 µM for all NMR experiments, and the DMSO concentration was 5% for NMR titrations […]

With N=C(N)N1CCC(Cc2ccccc2)CC1 [BPC, 4-benzylpiperidine-1-carboximidamide] as the compound, how does the “effect on PHD resonances” value ([1]; 3 mM BPC, 5% DMSO (12:1)) read?
Its value is “unaffected”.

What about the “interaction with PHD” value ([1]; separate NMR titration with PHD) of the same compound?
The value was “no interaction”.

What about the Kdisp [2] of the same compound?
Its Kdisp is 312 µM.

And the “ΔTm (thermal shift)” value [3]?
Its value is 2.9 °C.
